Measurements as given in article PMC3025922 (BMC Biology, 2010).
Where two headings read alike, the source gives them in different places.

System: nuclear p27 in LNCaP-S14 cells
Type: cell-based, human
Conditions: for hit in primary screen (increased percentage of p27 positive cells): LNCaP-S14, ~5 to 35 μM, 18 h
[1] = primary screening, nuclear p27 in LNCaP-S14 cells
[2] = primary screening, S = strong, M = medium, W = weak by Z score

| Structure (SMILES) | Z score (aver) [1] | Clasf [2] | Clasf | Z score (aver) | hit in primary screen (increased percentage of p27 positive cells) |
| --- | --- | --- | --- | --- | --- |
| O=C(CCCN1CCC2(CC1)C(=O)NCN2c1ccccc1)c1ccc(F)cc1 [1568J18] | 4.37 | M (medium (Z score 3-5)) |  |  |  |
| COC(=O)Nc1nc2cc(Sc3ccccc3)ccc2[nH]1 [1568J21] | 3.73 | M (medium (Z score 3-5)) |  |  |  |
| COc1ccc(CCN2CCC(Nc3nc4ccccc4n3Cc3ccc(F)cc3)CC2)cc1 [1568K14] |  |  | S (key: S: strong (Z score > 5); M: medium (Z score 3-5); W: weak (Z score 2-3) | 8.76 |  |
| CC#CC1(O)CCC2C3CCC4=CC(=O)CCC4=C3C(c3ccc(N(C)C)cc3)CC21C (centres unmarked) [1568L20] | 3.22 | M (medium (Z score 3-5)) |  |  |  |
| N=C(NCCCCCCNC(=N)NC(=N)Nc1ccc(Cl)cc1)NC(=N)Nc1ccc(Cl)cc1 [1568M08] | 6.26 | S (strong (Z score > 5)) |  |  |  |
| CCC(=C(c1ccccc1)c1ccc(OCCN(C)C)cc1)c1ccccc1.O=C(O)CC(O)(CC(=O)O)C(=O)O [1568M14] | 2.56 | W (weak (Z score 2-3) |  |  |  |
| Clc1ccc(COC(Cn2ccnc2)c2ccc(Cl)cc2Cl)c(Cl)c1 (centres unmarked) [1568M15] |  |  | W (key: S: strong (Z score > 5); M: medium (Z score 3-5); W: weak (Z score 2-3) | 2.54 |  |
| Clc1ccc(COC(Cn2ccnc2)c2ccc(Cl)cc2Cl)cc1.O=[N+]([O-])O (centres unmarked) [1568N10] | 2.46 | W (weak (Z score 2-3) |  |  |  |
| O=c1[nH]c2ccccc2n1C1CCN(CCCC(c2ccc(F)cc2)c2ccc(F)cc2)CC1 [1568N18] | 2.26 | W (weak (Z score 2-3) |  |  |  |
| CSc1ccc2c(c1)N(CCC1CCCCN1C)c1ccccc1S2.Cl (centres unmarked) [1568O17] |  |  | W (key: S: strong (Z score > 5); M: medium (Z score 3-5); W: weak (Z score 2-3) | 2.51 |  |
| CCN(CC)CCCC(C)Nc1c2ccc(Cl)cc2nc2ccc(OC)cc12 (centres unmarked) [1568P18] | 6.13 | S (strong (Z score > 5)) |  |  |  |
| CCCCCCC[N+](CC)(CC)CCCCc1ccc(Cl)cc1.Cc1ccc(S(=O)(=O)[O-])cc1 [1568P20] | 9.16 | S (strong (Z score > 5)) |  |  |  |
| Cl.OCCN1CCN(CCCN2c3ccccc3Sc3ccc(C(F)(F)F)cc32)CC1 [1568P22] | 2.76 | W (weak (Z score 2-3) |  |  |  |
| CN(C)CCC=C1c2ccccc2Sc2ccc(Cl)cc21.Cl [1569E17] | 3.86 | M (medium (Z score 3-5)) |  |  |  |
| COc1ccc(Cc2nccc3cc(OC)c(OC)cc23)cc1OC.Cl [1569F08] | 2.60 | W (weak (Z score 2-3) |  |  |  |
| C=C(NC(=O)C(=C)NC(=O)c1csc(C2=NC3c4csc(n4)C4NC(=O)c5csc(n5)C(C(C)(O)C(C)O)NC(=O)C5CSC(=N5)C(=CC)NC(=O)C(C(C)O)NC(=O)c5csc(n5)C3(CC2)NC(=O)C(C)NC(=O)C(=C)NC(=O)C(C)NC(=O)C(C(C)CC)NC2C=Cc3c(C(C)O)cc(nc3C2O)C(=O)OC4C)n1)C(N)=O (centres unmarked) [1569J05] | 5.60 | S (strong (Z score > 5)) |  |  |  |
| CSc1ccc2c(c1)C(N1CCN(C)CC1)Cc1ccccc1S2.O=C(O)C=CC(=O)O (centres unmarked) [1569K11] | 4.55 | M (medium (Z score 3-5)) |  |  |  |
| C=C1c2c(Cl)ccc(O)c2C(=O)C2=C(O)C3(O)C(=O)C(C(N)=O)=C(O)C(N(C)C)C3C(O)C12.O=C(O)c1cc(S(=O)(=O)O)ccc1O (centres unmarked) [1569K14] | 2.51 | W (weak (Z score 2-3) |  |  |  |
| CC1=CC(=O)c2ccccc2C1=O [1569K20] | 6.94 | S (strong (Z score > 5)) |  |  |  |
| Cc1c2ccncc2c(C)c2c1[nH]c1ccccc12 [1569L10] | 2.59 | W (weak (Z score 2-3) |  |  |  |
| Cl.Fc1ccc(C(OCCN2CCN(CCCc3ccccc3)CC2)c2ccc(F)cc2)cc1 [1569M13] | 5.81 | S (strong (Z score > 5)) |  |  |  |

| Structure (SMILES) | Z score (aver) [1] | Clasf [2] | Clasf | Z score (aver) | hit in primary screen (increased percentage of p27 positive cells) |
| --- | --- | --- | --- | --- | --- |
| Cc1cc(N)c2ccccc2[n+]1CCCCCCCCCC[n+]1c(C)cc(N)c2ccccc21.Cl [1569M17] | 9.20 | S (strong (Z score > 5)) |  |  |  |
| C=C1C(=O)OC2C1CCC(C)=CCCC1(C)OC21 (centres unmarked) [1569N21] | 8.12 | S (strong (Z score > 5)) |  |  |  |
| COc1cc(C2c3cc4c(cc3C(OC3OC5COC(C)OC5C(O)C3O)C3COC(=O)C23)OCO4)cc(OC)c1O (centres unmarked) [1569O13] | 6.74 | S (strong (Z score > 5)) |  |  |  |
| COc1ccc(CC(N)C(=O)NC2C(CO)OC(n3cnc4c(N(C)C)ncnc43)C2O)cc1.Cl (centres unmarked) [1569O22] | 7.86 | S (strong (Z score > 5)) |  |  |  |
| CC1OC(OC2CCC3(C=O)C4CCC5(C)C(C6=CC(=O)OC6)CCC5(O)C4CCC3(O)C2)CC(O)C1O (centres unmarked) [1570A13] | 2.74 | W (weak (Z score 2-3) |  |  |  |
| CC12CCC(O)CC1CCC1C2CC(O)C2(C)C(C3=CC(=O)OC3)CCC12O (centres unmarked) [1570B08] | 2.80 | W (weak (Z score 2-3) |  |  |  |
| CN(C)CCN(Cc1ccc(Cl)cc1)c1ccccn1.Cl [1570B15] | 8.42 | S (strong (Z score > 5)) |  |  |  |
| CCC1(C2OC(C3OC(O)(CO)C(C)CC3C)CC2C)CCC(C2(C)CCC3(CC(O)C(C)C(C(C)C(OC)C(C)C(=O)[O-])O3)O2)O1.[Na+] (centres unmarked) [1570E18] | 9.26 | S (strong (Z score > 5)) |  |  |  |
| CCC(C(=O)C(C)C(O)C(C)CCc1ccc(C)c(O)c1C(=O)[O-])C1OC(CC)(C2CCC(O)(CC)C(C)O2)CC1C.[Na+] (centres unmarked) [1570F17] | 8.04 | S (strong (Z score > 5)) |  |  |  |
| Cc1cc2c(C(C)C)c(O)c(O)c(C=O)c2c(O)c1-c1c(C)cc2c(C(C)C)c(O)c(O)c(C=O)c2c1O [1570G15] | 3.54 | M (medium (Z score 3-5)) |  |  |  |
| NCC1OC(OC2C(N)CC(N)C(O)C2OC2OC(CO)C(O)C2O)C(N)C(O)C1O.O=S(=O)(O)O (centres unmarked) [1570G18] | 6.58 | S (strong (Z score > 5)) |  |  |  |
| O=C1C=C2C=CC3CC2(O1)C1CCCCN31 (centres unmarked) [1570J03] | 3.84 | M (medium (Z score 3-5)) |  |  |  |
| CCCCCCCCCCCCCCCC[N+](C)(C)CCN(Cc1ccc(OC)cc1)c1ncccn1 [1570J12] | 8.18 | S (strong (Z score > 5)) |  |  |  |
| CCCC(C(=O)OCCN(CC)CC)(c1ccccc1)c1ccccc1.Cl [1570K18] | 3.31 | M (medium (Z score 3-5)) |  |  |  |
| Nc1ncn(C2OC(CO)C(O)C2O)c(=O)n1 (centres unmarked) [1570N13] | 7.46 | S (strong (Z score > 5)) |  |  |  |
| O=c1cc(-c2ccc(O)c(O)c2)oc2cc(O)cc(O)c12 [1570N21] | 3.48 | M (medium (Z score 3-5)) |  |  |  |
| CCCCc1ccc2nc(NC(=O)C3=NN(C)C(=O)CC3)sc2c1 [1715B12] | 2.67 | W (weak (Z score 2-3) |  |  |  |
| COc1cc(C#N)ccc1OC(=O)Cc1coc2ccc3ccccc3c12 [1715D21] | 2.52 | W (weak (Z score 2-3) |  |  |  |
| COC[C@H]1OC(=O)c2coc3c2[C@@]1(C)C1=C(C3=O)[C@@H]2CCC(=O)[C@@]2(C)C[C@H]1OC(C)=O [Wortmannin, reference compound] |  |  |  |  | scored positive |
| CC[C@@]1(O)C(=O)OCc2c1cc1n(c2=O)Cc2cc3ccccc3nc2-1 [camptothecin, reference compound] |  |  |  |  | identified |
